ChEMBL document CHEMBL1141893, “5-Lipoxygenase inhibition by N-hydroxycarbamates in dual-function compounds” (Bioorg Med Chem Lett, 2005)

What was measured:
[1] = biological target: T1, Polyunsaturated fatty acid 5-lipoxygenase (Homo sapiens, UniProt P09917); assay: Inhibitory concentration against human 5-lipoxygenase
T1 sequence (P09917 whole entry): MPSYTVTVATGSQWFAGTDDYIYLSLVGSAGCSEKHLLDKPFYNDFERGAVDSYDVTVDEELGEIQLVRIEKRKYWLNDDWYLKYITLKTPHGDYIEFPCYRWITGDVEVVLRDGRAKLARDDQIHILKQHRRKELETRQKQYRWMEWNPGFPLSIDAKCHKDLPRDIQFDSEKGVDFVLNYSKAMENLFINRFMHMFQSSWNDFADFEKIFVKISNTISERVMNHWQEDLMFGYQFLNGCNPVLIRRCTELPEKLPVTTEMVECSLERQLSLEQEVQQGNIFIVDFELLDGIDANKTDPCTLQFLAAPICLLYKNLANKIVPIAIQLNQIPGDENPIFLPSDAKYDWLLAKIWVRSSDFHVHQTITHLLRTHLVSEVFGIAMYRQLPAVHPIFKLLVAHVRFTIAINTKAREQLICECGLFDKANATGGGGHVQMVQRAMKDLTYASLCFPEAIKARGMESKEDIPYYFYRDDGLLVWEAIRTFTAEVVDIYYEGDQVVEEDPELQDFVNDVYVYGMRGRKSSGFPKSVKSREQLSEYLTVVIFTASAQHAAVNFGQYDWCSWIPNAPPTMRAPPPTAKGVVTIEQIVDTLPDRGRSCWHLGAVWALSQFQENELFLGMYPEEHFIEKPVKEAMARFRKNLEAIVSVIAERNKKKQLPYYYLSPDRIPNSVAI

[2] = biological target: T1, Polyunsaturated fatty acid 5-lipoxygenase; assay: Inhibitory concentration against 5-lipoxygenase in human whole blood; type: functional, tissue-based
Histamine H1 receptor = Histamine H1 receptor (Homo sapiens, UniProt P35367); assay: Binding affinity for human Histamine H1 receptor in CHO K1 cells; type: cell-based
Chain of Histamine H1 receptor (P35367 whole entry): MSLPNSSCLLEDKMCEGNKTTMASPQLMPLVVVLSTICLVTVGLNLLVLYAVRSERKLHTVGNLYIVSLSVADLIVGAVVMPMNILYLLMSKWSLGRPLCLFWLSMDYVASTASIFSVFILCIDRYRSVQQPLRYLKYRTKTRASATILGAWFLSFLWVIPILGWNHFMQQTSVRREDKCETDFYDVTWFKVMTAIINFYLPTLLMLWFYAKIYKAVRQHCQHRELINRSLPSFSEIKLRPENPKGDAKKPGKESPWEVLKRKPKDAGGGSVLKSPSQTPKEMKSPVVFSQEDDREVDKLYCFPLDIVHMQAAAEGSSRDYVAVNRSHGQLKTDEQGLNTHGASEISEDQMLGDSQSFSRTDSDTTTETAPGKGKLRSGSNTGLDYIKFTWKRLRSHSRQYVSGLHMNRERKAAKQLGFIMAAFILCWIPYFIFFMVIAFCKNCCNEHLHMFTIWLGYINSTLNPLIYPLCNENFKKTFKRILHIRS

Structure (SMILES)	IC50 [1] [nM]	IC50 [2] [nM]	Ki (Histamine H1 receptor) [nM]
CCOC(=O)N(O)CCC#Cc1ccc(OCCCCN2CCN(C(c3ccc(F)cc3)c3ccc(F)cc3)CC2)cc1	365	72	5.89
CC(C)OC(=O)N(O)CCC#Cc1ccc(OCCCCN2CCN(C(c3ccc(F)cc3)c3ccc(F)cc3)CC2)cc1	335	102	9.55
CC(C)COC(=O)N(O)CCC#Cc1ccc(OCCCCN2CCN(C(c3ccc(F)cc3)c3ccc(F)cc3)CC2)cc1	420	176	7.59
O=C(OCc1ccccc1)N(O)CCC#Cc1ccc(OCCCCN2CCN(C(c3ccc(F)cc3)c3ccc(F)cc3)CC2)cc1	350	150	17.8

Compounds with a lower IC50 [1], results first:

IC50 [1] [nM]	IC50 [2] [nM]	Ki (Histamine H1 receptor) [nM]	Structure (SMILES)
170	90	5.01	COC(=O)N(O)CCC#Cc1ccc(OCCCCN2CCN(C(c3ccc(F)cc3)c3ccc(F)cc3)CC2)cc1
193			NC(=O)N(O)CCC#Cc1ccc(OCCCCN2CCN(C(c3ccc(F)cc3)c3ccc(F)cc3)CC2)cc1
